From ChEMBL document CHEMBL1201862, “PubChem BioAssay data set” (2004)
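Briefly, cells in 96-well plates were exposed to five compound concentrations for 48 h, and endpoints were estimated by linear interpolation. Here, GI50 denotes the concentration required for 50% inhibition of growth.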 Active and inactive are the calls of the source. Cut-off read from the data, not from the text of the source: active = GI50 up to about 1.1 µM and inactive = higher.

Key:
Assay in all cases: NCI-60 cell line screen, 48 h
UO-31 = test system: UO-31
HCT-15 = test system: HCT-15
RXF 393 = test system: RXF 393
A498 = test system: A498
HT-29 = test system: HT-29
OVCAR-5 = test system: OVCAR-5
PC-3 = test system: PC-3
SK-OV-3 = test system: SK-OV-3
KM12 = test system: KM12
OVCAR-8 = test system: OVCAR-8
MDA-MB-231 = test system: MDA-MB-231
M14 = test system: M14
MDA-MB-435 = test system: MDA-MB-435
NCI-H460 = test system: NCI-H460
DU-145 = test system: DU-145
ACHN = test system: ACHN
NCI/ADR-RES = test system: NCI/ADR-RES
SW-620 = test system: SW-620
OVCAR-3 = test system: OVCAR-3
SF-295 = test system: SF-295
LOX IMVI = test system: LOX IMVI
HOP-62 = test system: HOP-62
HCC 2998 = test system: HCC 2998
HOP-92 = test system: HOP-92
HL-60 = test system: HL-60
SR = test system: SR
T47D = test system: T47D
MCF7 = test system: MCF7
Hs-578T = test system: Hs-578T
MDA-N = test system: MDA-N
MOLT-4 = test system: MOLT-4
SF-268 = test system: SF-268
UACC-62 = test system: UACC-62
IGROV-1 = test system: IGROV-1
COLO 205 = test system: COLO 205
BT-549 = test system: BT-549
SNB-19 = test system: SNB-19
CAKI-1 = test system: CAKI-1
TK-10 = test system: TK-10
SK-MEL-2 = test system: SK-MEL-2
HCT-116 = test system: HCT-116
K562 = test system: K562
SK-MEL-28 = test system: SK-MEL-28
SK-MEL-5 = test system: SK-MEL-5
U-251 = test system: U-251
NCI-H522 = test system: NCI-H522
CCRF-CEM = test system: CCRF-CEM
Malme-3M = test system: Malme-3M
A549 = test system: A549
EKVX = test system: EKVX
SN12C = test system: SN12C
786-0 = test system: 786-0
SF-539 = test system: SF-539
SNB-75 = test system: SNB-75
UACC-257 = test system: UACC-257
NCI-H23 = test system: NCI-H23
NCI-H226 = test system: NCI-H226
OVCAR-4 = test system: OVCAR-4
RPMI-8226 = test system: RPMI-8226

For COc1ccc2c(c1)Cc1cc(/N=[N+](\[O-])c3ccc4c(c3)Cc3cc(OC)ccc3-4)ccc1-2, the GI50 (UO-31) was 24.9 µM (inactive), the GI50 (HCT-15) was 95.7 µM and the GI50 (RXF 393) was 57.7 µM (inactive). The GI50 (A498) was 35.6 µM (inactive), the GI50 (HT-29) was 15.6 µM (inactive) and the GI50 (OVCAR-5) was > 100 µM (inactive). The GI50 (PC-3) was 35.9 µM (inactive), the GI50 (SK-OV-3) was > 100 µM (inactive) and the GI50 (KM12) was 29.4 µM (inactive). The GI50 (OVCAR-8) was 38.6 µM (inactive), the GI50 (MDA-MB-231) was 43 µM (inactive) and the GI50 (M14) was 49.4 µM (inactive). For the same compound, the GI50 (MDA-MB-435) was 27.1 µM (inactive), the GI50 (NCI-H460) was 39.3 µM (inactive) and the GI50 (DU-145) was > 100 µM (inactive). For the same compound, the GI50 (ACHN) was 37.2 µM (inactive), the GI50 (NCI/ADR-RES) was 89.1 µM (inactive) and the GI50 (SW-620) was > 100 µM (inactive). The GI50 (OVCAR-3) was 48.8 µM (inactive), the GI50 (SF-295) was 67.3 µM (inactive) and the GI50 (LOX IMVI) was 33.1 µM (inactive). For the same compound, the GI50 (HOP-62) was 43.9 µM (inactive), the GI50 (HCC 2998) was 14.2 µM (inactive) and the GI50 (HOP-92) was 44.1 µM (inactive). For the same compound, the GI50 (HL-60) was 7.48 µM (inactive), the GI50 (SR) was 16.4 µM (inactive) and the GI50 (T47D) was 38.5 µM (inactive). For the same compound, the GI50 (MCF7) was 19.7 µM (inactive), the GI50 (Hs-578T) was 54 µM (inactive) and the GI50 (MDA-N) was 29.7 µM (inactive). For the same compound, the GI50 (MOLT-4) was 36.6 µM (inactive), the GI50 (SF-268) was 82.8 µM (inactive) and the GI50 (UACC-62) was 24.5 µM (inactive). The GI50 (IGROV-1) was 24 µM (inactive), the GI50 (COLO 205) was 15.3 µM (inactive) and the GI50 (BT-549) was 76.7 µM (inactive). The GI50 (SNB-19) was 51.8 µM (inactive), the GI50 (CAKI-1) was 36.2 µM (inactive) and the GI50 (TK-10) was 64.3 µM (inactive). The GI50 (SK-MEL-2) was 60 µM (inactive), the GI50 (HCT-116) was 60.7 µM (inactive) and the GI50 (K562) was 38.8 µM (inactive). For the same compound, the GI50 (SK-MEL-28) was 75.2 µM (inactive), the GI50 (SK-MEL-5) was 18.1 µM (inactive) and the GI50 (U-251) was 16.9 µM (inactive). The GI50 (NCI-H522) was 4.78 µM (inactive), the GI50 (CCRF-CEM) was 12 µM (inactive) and the GI50 (Malme-3M) was 38.9 µM (inactive). For the same compound, the GI50 (A549) was 43.1 µM (inactive), the GI50 (EKVX) was 11.3 µM (inactive) and the GI50 (SN12C) was > 100 µM (inactive). The GI50 (786-0) was 33.2 µM (inactive), the GI50 (SF-539) was 10.2 µM (inactive) and the GI50 (SNB-75) was 39.2 µM (inactive). The GI50 (UACC-257) was 12.9 µM (inactive), the GI50 (NCI-H23) was 65.6 µM (inactive) and the GI50 (NCI-H226) was 70.3 µM (inactive). The GI50 (OVCAR-4) was 40 µM (inactive).
With CC(C)(Oc1ccc(-c2cccc3ccccc23)cc1)C(=O)O the GI50 (UO-31) was > 100 µM (inactive), the GI50 (HCT-15) was 77.3 µM and the GI50 (RXF 393) was > 100 µM (inactive). For the same compound, the GI50 (A498) was > 100 µM (inactive), the GI50 (HT-29) was > 100 µM (inactive) and the GI50 (OVCAR-5) was > 100 µM (inactive). For the same compound, the GI50 (PC-3) was > 100 µM (inactive), the GI50 (SK-OV-3) was > 100 µM (inactive) and the GI50 (KM12) was 97.7 µM (inactive). For the same compound, the GI50 (OVCAR-8) was > 100 µM (inactive), the GI50 (MDA-MB-231) was > 100 µM (inactive) and the GI50 (M14) was > 100 µM (inactive). For the same compound, the GI50 (MDA-MB-435) was > 100 µM (inactive), the GI50 (NCI-H460) was > 100 µM (inactive) and the GI50 (DU-145) was > 100 µM (inactive). For the same compound, the GI50 (ACHN) was > 100 µM (inactive), the GI50 (NCI/ADR-RES) was > 100 µM (inactive) and the GI50 (SW-620) was > 100 µM (inactive). The GI50 (OVCAR-3) was > 100 µM (inactive), the GI50 (SF-295) was 60.4 µM (inactive) and the GI50 (HOP-62) was > 100 µM (inactive). The GI50 (HCC 2998) was > 100 µM (inactive), the GI50 (HOP-92) was > 100 µM (inactive) and the GI50 (HL-60) was 3.86 µM (inactive). The GI50 (SR) was > 100 µM (inactive), the GI50 (T47D) was 80.2 µM (inactive) and the GI50 (MCF7) was > 100 µM (inactive). For the same compound, the GI50 (Hs-578T) was > 100 µM (inactive), the GI50 (MDA-N) was > 100 µM (inactive) and the GI50 (MOLT-4) was > 100 µM (inactive). For the same compound, the GI50 (SF-268) was > 100 µM (inactive), the GI50 (UACC-62) was > 100 µM (inactive) and the GI50 (IGROV-1) was > 100 µM (inactive). The GI50 (COLO 205) was 71 µM (inactive), the GI50 (BT-549) was > 100 µM (inactive) and the GI50 (SNB-19) was > 100 µM (inactive). For the same compound, the GI50 (CAKI-1) was > 100 µM (inactive), the GI50 (TK-10) was > 100 µM (inactive) and the GI50 (SK-MEL-2) was > 100 µM (inactive). The GI50 (HCT-116) was > 100 µM (inactive), the GI50 (RPMI-8226) was > 100 µM (inactive) and the GI50 (K562) was 1.3 µM (inactive). For the same compound, the GI50 (SK-MEL-28) was > 100 µM (inactive), the GI50 (SK-MEL-5) was 99.5 µM (inactive) and the GI50 (U-251) was > 100 µM (inactive). The GI50 (NCI-H522) was > 100 µM (inactive), the GI50 (CCRF-CEM) was 6.22 µM (inactive) and the GI50 (Malme-3M) was > 100 µM (inactive). For the same compound, the GI50 (A549) was 59.6 µM (inactive), the GI50 (EKVX) was > 100 µM (inactive) and the GI50 (SN12C) was 85.1 µM (inactive). For the same compound, the GI50 (786-0) was > 100 µM (inactive), the GI50 (SF-539) was > 100 µM (inactive) and the GI50 (SNB-75) was > 100 µM (inactive). The GI50 (UACC-257) was > 100 µM (inactive), the GI50 (NCI-H23) was > 100 µM (inactive) and the GI50 (NCI-H226) was > 100 µM (inactive). For the same compound, the GI50 (OVCAR-4) was > 100 µM (inactive).
